Source: the supplement of paper PMC10307832

Assays:
Test in all cases: relative viability (nuclei count vs DMSO), 5 days (fraction); higher = more cells survive
MLN4924 + Vorinostat = compound: NS(=O)(=O)OC[C@@H]1C[C@@H](n2ccc3c(N[C@H]4CCc5ccccc54)ncnc32)C[C@@H]1O [MLN4924] + O=C(CCCCCCC(=O)Nc1ccccc1)NO [Vorinostat] (partner 1 µM)
Method in brief: (§1)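 Relative viability is defined as nuclei in treated wells over nuclei in vehicle wells. Duplicate plates were run and medians reported. Lung cancer cell lines in 1536-well plates were dosed by pin tool one day after seeding, with one drug or with a fixed anchor-drug dose plus five library-drug doses (not always all listed) in √10 steps, and nuclei were counted after 5 days.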

GSK126 + Tozasertib = compound: CC[C@H](C)N1C=C(C2=C(C=C(C=C21)C3=CN=C(C=C3)N4CCNCC4)C(=O)NCC5=C(C=C(NC5=O)C)C)C [GSK126] + Cc1cc(Nc2cc(N3CCN(C)CC3)nc(Sc3ccc(NC(=O)C4CC4)cc3)n2)n[nH]1 [Tozasertib] (partner 0.1 µM)
Method in brief: as §1

Carboplatin + OSI-027 = compound: C1CC(C1)(C(=O)O)C(=O)O.[NH2-].[NH2-].[Pt+2] [Carboplatin] + COc1cccc2cc(-c3nc([C@H]4CC[C@H](C(=O)O)CC4)n4ncnc(N)c34)[nH]c12 [OSI-027] (partner 0.5 µM)
Method in brief: as §1

MLN4924 + Crizotinib = compound: NS(=O)(=O)OC[C@@H]1C[C@@H](n2ccc3c(N[C@H]4CCc5ccccc54)ncnc32)C[C@@H]1O [MLN4924] + C[C@@H](Oc1cc(-c2cnn(C3CCNCC3)c2)cnc1N)c1c(Cl)ccc(F)c1Cl [Crizotinib] (partner 1 µM)
Method in brief: as §1

Row | Cell Line | relative viability (MLN4924 + Vorinostat; first compound 0.04 µM) | relative viability (MLN4924 + Vorinostat; first compound 0.1265 µM) | relative viability (MLN4924 + Vorinostat; first compound 0.4 µM) | relative viability (MLN4924 + Vorinostat; first compound 1.265 µM) | relative viability (MLN4924 + Vorinostat; first compound 4 µM) | relative viability (GSK126 + Tozasertib; first compound 0.08 µM) | relative viability (GSK126 + Tozasertib; first compound 0.253 µM) | relative viability (GSK126 + Tozasertib; first compound 0.8 µM) | relative viability (GSK126 + Tozasertib; first compound 2.53 µM) | relative viability (GSK126 + Tozasertib; first compound 8 µM) | relative viability (Carboplatin + OSI-027; first compound 0.08 µM) | relative viability (Carboplatin + OSI-027; first compound 0.253 µM) | relative viability (Carboplatin + OSI-027; first compound 0.8 µM) | relative viability (Carboplatin + OSI-027; first compound 2.53 µM) | relative viability (Carboplatin + OSI-027; first compound 8 µM) | relative viability (MLN4924 + Crizotinib; first compound 0.04 µM) | relative viability (MLN4924 + Crizotinib; first compound 0.1265 µM) | relative viability (MLN4924 + Crizotinib; first compound 0.4 µM) | relative viability (MLN4924 + Crizotinib; first compound 1.265 µM) | relative viability (MLN4924 + Crizotinib; first compound 4 µM)
1 | NCI-H650 | 0.446 | 0.306 | 0.169 | 0.126 | 0.143 | 0.783 | 0.744 | 0.702 | 0.691 | 0.717 | 0.526 | 0.514 | 0.601 | 0.539 | 0.356 | 0.676 | 0.402 | 0.289 | 0.135 | 0.179
2 | NCI-H2126 | 0.814 | 0.869 | 0.555 | 0.237 | 0.267 | 1 | 0.835 | 0.871 | 0.838 | 0.812 | 0.812 | 0.654 | 0.677 | 0.635 | 0.595 | 0.912 | 0.911 | 0.789 | 0.397 | 0.256
3 | NCI-H838 | 0.631 | 0.4 | 0.284 | 0.168 | 0.151 | 0.293 | 0.269 | 0.255 | 0.261 | 0.242 | 0.468 | 0.32 | 0.439 | 0.364 | 0.391 | 0.635 | 0.535 | 0.235 | 0.154 | 0.139
4 | EPLC-272H | 0.195 | 0.184 | 0.098 | 0.0963 | 0.144 | 0.316 | 0.306 | 0.211 | 0.306 | 0.189 | 0.299 | 0.287 | 0.291 | 0.259 | 0.247 | 0.812 | 0.603 | 0.0795 | 0.136 | 0.201
5 | NCI-H1437 | 0.769 | 0.621 | 0.385 | 0.229 | 0.193 | 0.42 | 0.433 | 0.4 | 0.35 | 0.388 | 0.935 | 0.822 | 0.83 | 0.749 | 0.488 | 0.854 | 0.77 | 0.626 | 0.336 | 0.164
6 | NCI-H2405 | 0.861 | 0.849 | 0.411 | 0.181 | 0.19 | 0.767 | 0.71 | 0.752 | 0.697 | 0.608 | 0.683 | 0.624 | 0.624 | 0.642 | 0.56 | 0.797 | 0.667 | 0.478 | 0.266 | 0.242
7 | NCI-H1666 | 0.697 | 0.623 | 0.653 | 0.443 | 0.444 | 0.667 | 0.624 | 0.557 | 0.52 | 0.49 | 0.831 | 0.818 | 0.831 | 0.644 | 0.566 | 1.18 | 0.669 | 0.306 | 0.25 | 0.236
8 | NCI-H1993 | 0.645 | 0.26 | 0.29 | 0.309 | 0.314 | 0.586 | 0.639 | 0.585 | 0.659 | 0.649 | 0.463 | 0.556 | 0.566 | 0.51 | 0.498 | 1.02 | 0.678 | 0.626 | 0.447 | 0.622
